Data taken from US20230201238A1, “THERAPEUTIC AGENT FOR AN RNA VIRUS INFECTION COMPRISING A COMBINATION OF A PYRAZINE DERIVATIVE AND A THIOPURINE DERIVATIVE” (priority 2020, published 2023).
Read-outs that look alike come from different tables or passages of the source.

Key:
[1] = tested on: Vero cells; settings: with T-705
[2] = tested on: influenza virus (PR/8/34 (H1N1)); type: cell-based; settings: for IC50: Vero cells, 2 days, read-out: The 50% CPE inhibitory concentration of T-705

SMILES | Effect on intracellular T-705RTP amount after T-705 treatment [1] | CPE inhibitory effect ([2]; 6-methylmercaptopurine riboside 10 μM alone) | IC50 ([2]; T-705 alone (6-methylmercaptopurine 0 μM)) [µM] | 50% CPE inhibitory concentration of T-705 in combination compared to T-705 alone ([2]; in combination with 6-methylmercaptopurine riboside) | IC50 ([2]; with 6-methylmercaptopurine 0.1 μM) [µM] | IC50 ([2]; with 6-methylmercaptopurine 0.3 μM) [µM] | IC50 ([2]; with 6-methylmercaptopurine 1 μM) [µM] | IC50 ([2]; with 6-methylmercaptopurine 3 μM) [µM] | IC50 ([2]; with 6-methylmercaptopurine 10 μM) [µM]
CSc1ncnc2c1ncn2[C@@H]1O[C@H](CO)[C@@H](O)[C@H]1O [6-methylmercaptopurine riboside] | increased | did not show a CPE inhibitory effect | – | – | – | – | – | – | –
NC(=O)c1nc(F)cnc1O [T-705] | – | – | 183 | lower | 89.4 | 48.9 | 30.6 | 21.9 | 20.2
